The target of this assay is T1, human capsaicin receptor (Homo sapiens, UniProt Q8NER1).
T1 construct: expressed in transfected cells
Description: Calcium mobilization assay, antagonist activity (Example 6). In kind it is cell-based. To be noted: Table II; 50% decrease in fluorescence response of cells expressing human capsaicin receptor exposed to capsaicin. Put shortly:
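Stable HEK293 clones expressing full-length human receptor, loaded with Fluo-3 in KRH buffer pH 7.4. Test compounds at 1 μM to 5 μM final preincubated 0.5 to 6 hours at room temperature, then challenged with capsaicin at its EC50; IC50 is 50% decrease in FLIPR calcium response.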
(In general: Calcium flux is commonly read through the fluorescence of an indicator in the cells.)

A value given as a limit tells only on which side of the number the result lay.

T1 sequence (Q8NER1 whole entry): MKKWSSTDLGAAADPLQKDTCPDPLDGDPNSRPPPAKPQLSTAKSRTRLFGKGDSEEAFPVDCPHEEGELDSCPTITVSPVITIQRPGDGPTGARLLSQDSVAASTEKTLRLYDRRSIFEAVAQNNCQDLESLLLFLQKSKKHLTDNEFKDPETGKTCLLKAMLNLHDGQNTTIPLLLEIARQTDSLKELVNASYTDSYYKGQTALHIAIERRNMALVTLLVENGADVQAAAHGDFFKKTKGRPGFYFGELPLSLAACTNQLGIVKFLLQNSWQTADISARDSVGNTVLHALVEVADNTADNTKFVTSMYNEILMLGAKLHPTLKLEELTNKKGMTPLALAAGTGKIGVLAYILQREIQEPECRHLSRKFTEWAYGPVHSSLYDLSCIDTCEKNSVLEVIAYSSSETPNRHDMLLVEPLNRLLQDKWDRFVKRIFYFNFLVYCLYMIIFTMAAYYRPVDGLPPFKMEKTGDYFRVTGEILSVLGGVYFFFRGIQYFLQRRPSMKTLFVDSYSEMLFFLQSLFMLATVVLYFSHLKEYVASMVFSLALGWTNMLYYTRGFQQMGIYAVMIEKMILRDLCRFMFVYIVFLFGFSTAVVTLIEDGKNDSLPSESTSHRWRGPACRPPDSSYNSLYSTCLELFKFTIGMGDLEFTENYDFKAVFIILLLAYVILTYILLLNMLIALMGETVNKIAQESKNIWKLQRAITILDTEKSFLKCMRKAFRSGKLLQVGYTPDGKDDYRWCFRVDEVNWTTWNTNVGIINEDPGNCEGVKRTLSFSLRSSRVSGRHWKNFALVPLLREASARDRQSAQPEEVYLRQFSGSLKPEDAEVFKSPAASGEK

By IC50 is commonly meant the concentration that gives 50% inhibition. Turning to `CCCCN(CCCC)Cc1nc(NCCc2ccccc2C)c2ccc(-c3ncccc3C(F)(F)F)cc2n1` [Compound 146], the half-inhibitory concentration (IC50) was not above 1000 nM. Then `C=C(C)CN(CC)Cc1nc(NCCc2ccccc2)c2ccc(-c3ncccc3C(F)(F)F)cc2n1` [Compound 154, [2-{[Ethyl-(2-methyl-allyl)-amino]-methyl}-7-(3-trifluoromethyl-pyridin-2-yl)-quinazolin-4-yl]-phenethyl-amine], with not above 1000 nM.

For the compound `C=C(C)CN(CC)Cc1nc(NCCc2ccccc2C)c2ccc(-c3ncccc3C(F)(F)F)cc2n1` [Compound 155, [2-{[Ethyl-(2-methyl-allyl)-amino]-methyl}-7-(3-trifluoromethyl-pyridin-2-yl)-quinazolin-4-yl]-(2-o-tolyl-ethyl)-amine], the half-inhibitory concentration (IC50) is not above 1000 nM. Then `Cc1ccccc1CCNc1nc(CN(C)C2CCCCC2)nc2cc(-c3ncccc3C(F)(F)F)ccc12` [Compound 158, [2-[(Cyclohexyl-methyl-amino)-methyl]-7-(3-trifluoromethyl-pyridin-2-yl)-quinazolin-4-yl]-(2-o-tolyl-ethyl)-amine], with not above 1000 nM; and `CCN(Cc1nc(NCCc2ccccc2C)c2ccc(-c3ncccc3C(F)(F)F)cc2n1)C1CCCCC1` [Compound 164, [2-[(Cyclohexyl-ethyl amino)-methyl]-7-(3-trifluoromethyl-pyridin-2-yl)-quinazolin-4-yl]-(2-o-tolyl-ethyl)-amine], with not above 1000 nM. `COCCN(CCOC)Cc1nc(NCCc2ccccc2C)c2ccc(-c3ncccc3C(F)(F)F)cc2n1` [Compound 168, [2-{[Bis-(2-methoxy-ethyl)-amino]-methyl}-7-(3 trifluoromethyl-pyridin-2-yl)-quinazolin-4-yl]-(2-o-tolyl-ethyl)-amine]: the 50% inhibitory concentration (IC50) is not above 1000 nM.

`CCCCCN(CCCCC)Cc1nc(NCCc2ccccc2C)c2ccc(-c3ncccc3C(F)(F)F)cc2n1` [Compound 171, [2-Dipentylaminomethyl-7-(3-trifluoromethyl-pyridin-2-yl)-quinazolin-4-yl]-(2-o-tolyl-ethyl)-amine]: the IC50 was not above 1000 nM.

With `CCCCCN(CCCCC)Cc1nc(NCCc2ccccc2Cl)c2ccc(-c3ncccc3C(F)(F)F)cc2n1` [Compound 172, [2-(2-Chloro-phenyl)-ethyl]-[2-dipentylaminomethyl-7-(3-trifluoromethyl-pyridin-2-yl)-quinazolin-4-yl]-amine], the IC50 is not above 1000 nM.

Regarding `CCCCCCN(CCCCCC)Cc1nc(NCCc2ccccc2)c2ccc(-c3ncccc3C(F)(F)F)cc2n1` [Compound 173, [2-Dihexylaminomethyl-7-(3-trifluoromethyl-pyridin-2-yl)-quinazolin-4-yl]-phenethyl-amine], the IC50 is not above 1000 nM.

As to `CCCCCCN(CCCCCC)Cc1nc(NCCc2ccccc2C)c2ccc(-c3ncccc3C(F)(F)F)cc2n1` [Compound 174, [2-Dihexylaminomethyl-7-(3-trifluoromethyl-pyridin-2-yl)-quinazolin-4-yl]-(2-o-tolyl-ethyl)-amine], the concentration for half-maximal inhibition (IC50) is not above 1000 nM. Then `CCCCCCN(CCCCCC)Cc1nc(NCCc2ccccc2Cl)c2ccc(-c3ncccc3C(F)(F)F)cc2n1` [Compound 175, [2-(2-Chloro-phenyl)-ethyl]-[2-dihexylaminomethyl-7-(3-trifluoromethyl-pyridin-2-yl)-quinazolin-4-yl]-amine], with not above 1000 nM; and `CC1CC(C)CN(Cc2nc(NCCc3ccccc3)c3ccc(-c4ncccc4C(F)(F)F)cc3n2)C1` (centres unmarked) [Compound 176, [2-(3,5-Dimethyl-piperidin-1-ylmethyl)-7-(3-trifluoromethyl-pyridin-2-yl)-quinazolin-4-yl]-phenethyl-amine], with not above 1000 nM. `Cc1ccccc1CCNc1nc(CN2CC(C)CC(C)C2)nc2cc(-c3ncccc3C(F)(F)F)ccc12` (centres unmarked) [Compound 177, [2-(3,5-Dimethyl-piperidin-1-ylmethyl)-7-(3-trifluoromethyl-pyridin-2-Yl)-quinazolin-4-yl]-(2-o-tolyl-ethyl)-amine]: the half-inhibitory concentration (IC50) was not above 1000 nM.

On to `CC1CC(C)CN(Cc2nc(NCCc3ccccc3Cl)c3ccc(-c4ncccc4C(F)(F)F)cc3n2)C1` (centres unmarked) [Compound 178, [2-(2-Chloro-phenyl)-ethYl]-[2-(3,5-dimethyl-piperidin-1-ylmethyl)-7-(3-trifluoromethyl-pyridin-2-yl)-quinazolin-4-yl]-amine], for which the IC50 was not above 1000 nM.

Values taken from patent publication US20070219203A1, “Arylalkylamino-substituted quinazoline analogues” (Neurogen Corporation, priority 2004, published 2007).
